The values that follow come from US20250241965A1, “METHOD TO IMPROVE CELL VIABILITY OF CARDIOMYOCYTES” (UNIVERSITY OF WASHINGTON, priority 2022, published 2025).

Experiment [1] concerns pluripotent stem cells (PSCs) differentiating to cardiomyocytes. Kind of experiment: Cell yield during differentiation of pluripotent stem cells to cardiomyocytes in suspension culture. Format: cell-based. The following applies: for cell counts (cells/mL) during differentiation, FIG. 4: versus CBP conditions. The procedure:
FIG. 1A depicts the timeline, base media, media supplements, small molecules for the differentiation of pluripotent stem cells to cardiomyocytes. Addition of CHIR, Wnt agonist, occurs at Day 3 of differentiation, while the Wnt antagonist Wiki, is added either 48 or 44 hours after CHIR addition. The timing from CHIR to WIKI addition is optimized for each cell line and/or reagent change to most efficiently induce cardiomyocye differentiation.
(§1) FIG. 3 (top) illustrates the current best practice (CBP) differentiation methodology including timeline, base media, media supplements and the addition of small molecules. FIG. 3 (bottom) the experimental set up to test three different methodologies designed to improve the cell yield in comparison to CBP (1). To improve the total cell yield, adding an additional media change on the day just prior to the initiation of significant cell loss (2), or the addition of ROCK inhibitor at the points of small molecule addition (CHIR or WIKI, respectively) were tested. To monitor for the fate of cells in the experiment, the cultures were monitored for cell counts (both in single cell suspension and in aggregates), glucose, lactate, and pH using a Blood Gas Analyzer (BGA); apoptosis was analyzed by AnnexinV staining; additionally, mesoderm formation was monitored by flow cytometry for CD56 and PDGFRa to determine if the addition of ROCK inhibitor changed the developmental trajectory of the cells.
FIG. 4 (top) once again illustrates the experimental design as described in […], for reference. FIG. 4 (bottom) indicates the cell counts at multiple time-points from each condition during the differentiation of experiment #19. 19-1 is CBP conditions, 19-2 is media change at day 6 conditions (including the addition of Wiki 5 uM), 19-3 is conditions that received ROCK inhibitor at the time of small molecule addition. At day 6 of differentiation cells numbers in condition 19-3 were elevated to the point of needing to double the media volume and therefore cells were split into 19-3A and 19-3B.
involves multiple steps of PSC expansion and differentiation to the desired lineage. As presented here PSCs are thawed from a suspension PSC bank (PMID: 26318718) and aggregated in suspension culture, with the addition of the ROCK inhibitor Y-27632, shown to permit survival of dissociated PSCs (PMID: 17529971). Following expansion, the cells are induced to differentiate to mesoderm and then cardiomyocytes by modulating Wnt signaling using CHIR99021 to induce mesoderm (PMID: 23257984), followed small molecule Wnt inhibitor, WIKI4 (PMID: 23227175) to specify mesoderm to the cardiomyocyte lineage (FIG. 3).
loss during the addition of CHIR99021 and WIKI4. […] Additionally, at differentiation day 13, the culture with the addition of Y-27632 yielded nearly 4× more cardiomyocytes than cultures without. Subsequently Y-27632 was added to all cultures during the differentiation (FIG. 4).

Experiment [2] shares this test system. In words: Apoptosis by AnnexinV staining (flow cytometry) during cardiomyocyte differentiation. Format: cell-based.
Text: as §1
FIG. 6 illustrates that apoptosis correlates with the cell loss detected in CBP conditions (19-1) and media change (including Wiki) conditions (19-2), in comparison to ROCK inhibitor conditions (19-3). This illustration also includes an additional experimental set which includes addition of ROCK inhibitor at time-points of small molecule addition (20-1), or CBP conditions (20-2). […]

For the molecule `C[C@@H](N)[C@H]1CC[C@H](C(=O)Nc2ccncc2)CC1` [Y-27632], the yield of pre-cardiomyocytes in experiment [1] (Y-27632 added in combination with CHIR99021 and WIKI4, measured at day 6 of differentiation (4.7E5 cells/mL without)) was determined as 1.1E6 cells/mL. Further, in experiment [1] (condition 19-3: ROCK inhibitor at the time of small molecule (CHIR, WIKI) addition), the “cell counts (cells/mL) during differentiation, FIG. 4” value is listed as “significantly higher cell numbers”. Besides, the “cardiomyocyte yield relative to cultures without Y-27632” value in experiment [1] (differentiation day 13) was ~4 ×. The “yield of pre-cardiomyocytes relative to culture without Y-27632” value in experiment [1] (in combination with CHIR99021 and WIKI4, day 6 of differentiation) is given as “greater than double the yield”. Further, the “AnnexinV staining (apoptosis), FIG. 6” value in experiment [2] (condition 19-3: ROCK inhibitor at time-points of small molecule addition) is “low”.

Regarding `COc1ccc(-n2c(SCCCN3C(=O)c4cccc5cccc(c45)C3=O)nnc2-c2ccncc2)cc1` [WIKI4], the “cell loss by end of culture, FIG. 1B” value in experiment [1] (additional WIKI4 on day 6 of differentiation, 8 uM CHIR) is “extensive loss of cells”. Also, the “cell counts (cells/mL) during differentiation, FIG. 4” value in experiment [1] (condition 19-2: media change at day 6 including addition of Wiki 5 uM) is “even more rapid loss of cells”. Moreover, the “cells/mL in the final culture, FIG. 1B” value in experiment [1] (media change with no additional WIKI4 on day 6, Day 20 of differentiation) is given as “roughly 8E5 cells/mL”. Moreover, the “AnnexinV staining (apoptosis), FIG. 6” value in experiment [2] (condition 19-2: media change at day 6 including Wiki) was “high”.
